Assay results from ChEMBL document CHEMBL1145025, “Structure-activity relationship of (1-aryl-2-piperazinylethyl)piperazines: antagonists for the AGRP/melanocortin receptor binding” (J Med Chem, 2003).
Calls of active or inactive are those of the source.

Legend:
[1] = molecular target: T1, Melanocortin receptor 4 (Homo sapiens, UniProt P32245); assay: In vitro ability to inhibit the binding of alpha [125I]NDP-MSH to the human Melanocortin 4 receptor
[2] = molecular target: T1, Melanocortin receptor 4; assay: Fold selectivity for AGRP vs NDP-MSH binding was reported
[3] = molecular target: T1, Melanocortin receptor 4; assay: In vitro ability to inhibit the binding of [125I]AGRP to the human Melanocortin 4 receptor
[4] = Fold selectivity for AGRP vs NDP-MSH binding was reported; Minimal Activity.
[5] = Fold selectivity for AGRP vs NDP-MSH binding to human MC4R was reported; Minimal activity

T1 sequence (P32245 whole entry): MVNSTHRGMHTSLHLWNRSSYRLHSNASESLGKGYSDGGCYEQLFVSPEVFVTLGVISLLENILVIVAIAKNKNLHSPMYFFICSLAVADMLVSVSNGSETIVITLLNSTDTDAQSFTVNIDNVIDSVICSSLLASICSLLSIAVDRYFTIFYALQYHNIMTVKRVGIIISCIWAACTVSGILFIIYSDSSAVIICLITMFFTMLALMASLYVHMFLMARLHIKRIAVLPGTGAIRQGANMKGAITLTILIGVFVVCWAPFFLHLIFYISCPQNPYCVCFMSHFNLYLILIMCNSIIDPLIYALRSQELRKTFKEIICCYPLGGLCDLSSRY

| IC50 [1] [nM] | Selectivity [2] | IC50 [3] [nM] | Selectivity [4] | Structure (SMILES) | Selectivity [5] |
| --- | --- | --- | --- | --- | --- |
| 1500 | 2.5 | 588 |  | CC(CN1CCN(CC(c2ccc(F)cc2)N2CCN(C)CC2)CC1)C(=O)c1ccc([N+](=O)[O-])cc1 (configuration not stated) |  |
| > 10000 |  | > 10000 | Partially active | CN1CCN(C(CN2CCN(CCC(=O)c3ccccc3)CC2)c2ccc(F)cc2)CC1 (configuration not stated) |  |
| 178 | 0.7 | 266 |  | CC(CN1CCN(CC(c2ccc(F)cc2)N2CCN(C)CC2)CC1)C(=O)c1ccc(Cl)cc1 (configuration not stated) |  |
| 188 | 0.5 | 364 |  | CC(CN1CCN(CC(c2ccc(F)cc2)N2CCN(C)CC2)CC1)C(=O)c1ccc(Cl)c(Cl)c1 (configuration not stated) |  |
| 597 | 0.3 | 2150 |  | COc1ccc(C(=O)C(C)CN2CCN(CC(c3ccc(F)cc3)N3CCN(C)CC3)CC2)cc1 (configuration not stated) |  |
| 3830 |  | > 10000 | Partially active | CN1CCN(C(CN2CCN(CCCc3ccccc3)CC2)c2ccc(F)cc2)CC1 (configuration not stated) |  |
| 469 | 0.5 | 820 |  | CC(CN1CCN(CC(c2ccc(F)cc2)N2CCN(C)CC2)CC1)C(=O)c1ccc(C(F)(F)F)cc1 (configuration not stated) |  |
| 3230 |  | > 10000 | Partially active | CN1CCN(C(CN2CCN(CC3CCc4ccccc4C3=O)CC2)c2ccc(Cl)cc2)CC1 (configuration not stated) |  |
| 598 | 1.8 | 336 |  | CC(CN1CCN(CC(c2cccc(Cl)c2)N2CCN(C)CC2)CC1)C(=O)c1ccccc1 (configuration not stated) |  |
| 249 | 0.1 | 2860 |  | CC(CN1CCN(CC(c2ccc(F)cc2)N2CCN(c3ccccc3)CC2)CC1)C(=O)c1ccccc1 (configuration not stated) |  |
| 193 | 1.6 | 321 |  | CCN1CCN(C(CN2CCN(CC(C)C(=O)c3ccccc3)CC2)c2ccc(F)cc2)CC1 (configuration not stated) |  |
| 164 | 1 | 152 |  | CC(CN1CCN(CC(c2ccc(F)cc2)N2CCN(C3CCCCC3)CC2)CC1)C(=O)c1ccccc1 (configuration not stated) |  |
| 150 | 0.8 | 118 |  | CC(CN1CCN(CC(c2ccc(Cl)cc2)N2CCN(C)CC2)CC1)C(=O)c1ccc(Cl)cc1 (configuration not stated) |  |

| Structure (SMILES) | IC50 [1] [nM] | Selectivity [2] | IC50 [3] [nM] | Selectivity [4] | Selectivity [5] |
| --- | --- | --- | --- | --- | --- |
| CC(CN1CCN(CC(c2ccccc2)N2CCN(C)CC2)CC1)C(=O)c1ccccc1 (configuration not stated) | > 10000 |  | > 5000 |  | Partially active |
